Test results taken from patent publication US8435966B2, “Associations of xanthogenates and cyclodextrins, and their use” (Biosphings AG, priority 2006, dated 2013).
Read-outs that look alike come from different tables or passages of the source.

Columns and labels:
[1] = Stabilization of various xanthates by methyl-beta-cyclodextrin at 60° C. (decomposition in water, detected by pH value and calibration curves); settings: 24 h at 60° C.; for % Decomposition − Cyclodextrin / % Decomposition + Cyclodextrin: 10 mg/ml xanthate in water; for % Decomposition − Cyclodextrin: absence of cyclodextrin; for % Decomposition + Cyclodextrin: presence of 100 mg/ml methyl-beta-cyclodextrin; for Stabilization factor: decomposition without / with methyl-beta-cyclodextrin
Procedure: Solutions each containing 10 mg/ml methylxanthate, propylxanthate, butylxanthate, heptyixanthate, hexylxanthate, decylxanthate, isopropylxanthate, or tricyclo[5,2,1,0^2,6]-decylxanthate (D 609) in water were incubated for 24 h at 60° C. either in the presence or absence of 100 mg/ml methyl-beta-cyclodextrin. Xanthates decompose in aqueous medium into the corresponding alcohol, CS2, and, depending on the type of xanthate salt, KOH or NaOH. The decomposition of xanthates can therefore be detected quantitatively by measuring the pH value and using calibration curves.

[2] = system: erythrocytes; test: Hemolytic effect of xanthates (OD 450 of supernatants of diluted blood); settings: for 50% hemolysis (IC50): 30 minutes at room temperature
Procedure: Venous blood was taken from female Balb C mice by retroorbital puncture and heparin was added to the blood. The blood was then diluted 1:75 using phosphate-buffered saline. Methyl-, butyl, and hexylxanthate as well as exo/exo D 609 were dissolved in phosphate-buffered saline (stock solution 10 mg/ml). 100 μl diluted blood and 100 μl diluted xanthate solution each were placed in 96-well microtiter plates to obtain final concentrations of 2, 1, 0.5, 0.25, 0.125, 0.063, and 0.031 mg/ml of xanthate. Saline served as the control. After incubation at room temperature for 30 minutes, a centrifugation at 5,000 g for 5 min was performed and the supernatants were removed. The absorption of the supernatants at 450 nm (OD 450) was measured using an ELISA-Reader. Dose-response curves (FIGS. 2 and 3) were used to determine the concentrations at which 50% of the maximal absorption was reached and at which, therefore, 50% of the erythrocytes were lysed (IC50).

[3] = system: DNA and RNA virus species; tumor cells; settings: from literature and U.S. Pat. No. 4,602,037; cited from earlier work
[4] = system: lung edemas; settings: from literature; cited from earlier work
[5] = system: multiple sclerosis model; settings: from literature; cited from earlier work
[6] = Stabilization of exo/exo D 609 by cyclodextrin at room temperature (decomposition in water, pH after 45 days); assay type: physicochemical; settings: for decomposition / pH value of the solution: after 45 days
Procedure: The xanthate, D 609, decomposes in aqueous solutions to form the tricyclodecanol, CS2, and KOH. […] The pH value of the individual solutions was determined after 45 days using PANPEHA strips (Schleicher & Schüll). […] The pH value of the solution containing cyclodextrin was measured to be 7.0. This corresponds to <0.1% decomposition. Accordingly, the rate of decomposition is at least 1000-fold lower in the presence of cyclodextrin.

[7] = system: models of Alzheimer's disease; settings: from literature; cited from earlier work
[8] = system: female Balb C mice; test: Toxicity after intravenous application (survival 48 h after injection into the lateral tail vein); assay type: in vivo; settings: for Animals receiving injections/surviving animals: 48 h
Procedure: The exo/exo isomer of D 609 or hexylxanthate were dissolved in 0.9% NaCl or 0.9% NaCl/30% hydroxy-beta-cyclodextrin at a concentration of 30 mg/ml. Subsequently, dilutions were prepared using 0.9% NaCl solution to obtain concentrations of 30, 20, 10, and 5 mg/ml D 609 or hexylxanthate. Three female Balb C mice each received injections of 0.2 ml/20 g body weight of each solutions into the lateral tail vein. The animals were monitored for 48 h after injection and survival was recorded.

[9] = system: animal model of stroke; settings: from literature; cited from earlier work
[10] = system: HSV-1, strain Angelotti; test: Antiviral efficacy, plaque number in Calu-6 cells infected with HSV-1; assay type: cell-based; settings: addition of cyclodextrin 1:1 or 1:2 to D609, Calu-6 cells, 72 h
Procedure: Human lung carcinoma cells (Calu-6) in D-MEM medium (supplemented with 10% fetal calf serum) were seeded in 24-well plates (Greiner) (3×10^6 cells/plate each). After incubation for 24 h at 37° C. in a 5% CO2 atmosphere, the medium was decanted and 0.1 ml viral suspension (HSV-1, strain Angelotti, 200 plaque-forming units/ml) were added. After incubation at 37° C. for one hour, fresh medium (DMEM, 10% serum, 0.85 g NaHCO3/I) containing D609 (exo/exo isomer) or a mixture of D609 and beta-hydroxypropyl-cyclodextrin (b-HP) (Sigma, Munich, No 33, 260-7) was added.
The following concentrations were set-up:
After 72 h, the medium was decanted and the plates were fixed with 3% formalin and stained with 0.5% crystal violet. After the plates were dried, the number of plaques per well was determined and the means±standard deviation were calculated. The results (dose-response curves) are plotted in FIG. 4. […] Accordingly, the addition of beta-hydroxypropyl-cyclodextrin has no influence on the antiviral activity of D609.

[11] = Stabilization effect of different cyclodextrins on D 609 at 60° C. (RP-18 thin layer plate); assay type: physicochemical; settings: exo/exo D 609 with cyclodextrin, eight days at 60° C., TLC spots under UV (FIG. 1)
Procedure: Exo/exo D 609 was dissolved in solutions (100 mg/ml) containing various cyclodextrins (10 mg/ml). The samples were incubated for eight days at 60° C. 10 μl of each sample were diluted with 90 μl of water and 100 μl ethylacetate/3 mg/ml p-bromoacetophenone were added. After shaking for 30 minutes, 5 μl of the ethylacetate phase each were applied to a RP-18 thin layer plate and the plate was placed for 15 minutes in a TLC chamber containing acetonitrile as mobile phase. A freshly prepared solution of 9 mg/ml D 609 plus 1 mg/ml of a D 609 solution that had been incubated at 95° C. for 48 h (decomposition control) was used as calibration sample. The D 609-specific spots were visualized under UV light and photographed.

[12] = 10 mg/ml in water with 100 mg/ml cyclodextrin
[13] = in the presence of cyclodextrin
[14] = xanthate alone (absence of cyclodextrin)

## CCCCOC(=S)S [Butyl, butylxanthate]
[1]
  % Decomposition − Cyclodextrin: 20%
  % Decomposition + Cyclodextrin: 1%
  Stabilization factor: 20
[2]; FIGS. 2 and 3
  hemolytic effect / dose-response curves in the presence versus absence of cyclodextrin: no significant differences
[2]; absence of cyclodextrin
  concentration of complete hemolysis: 1000 µg/mL
  50% hemolysis (IC50): 800 µg/mL
[2]; presence of cyclodextrin
  concentration of complete hemolysis: 1000 µg/mL
  50% hemolysis (IC50): 650 µg/mL

## S=C([S-])OC1CC2CC1C1CCCC21.[K+] (stereo not drawn) [D 609]
[3]
  known activity: antiviral and antitumoral activity
[4]
  effect on lung edemas: protection from lung edemas
[5]
  effect in a multiple sclerosis model: protective effect
[6]; 10 mg/ml in pure water
  decomposition: complete decomposition
  pH value of the solution: 12.5
[6]; [12]
  decomposition: < 0.1%
  pH value of the solution: 7.0
[6]; 45 days, with versus without cyclodextrin
  rate of decomposition lower in the presence of cyclodextrin: at least 1000 fold
[7]
  effect in models of Alzheimer's disease: protective properties
[8]; Dose 50 mg/kg
  Animals receiving injections/surviving animals: 3/3
[8]; Dose 100 mg/kg
  Animals receiving injections/surviving animals: 3/0
[8]; Dose 200 mg/kg
  Animals receiving injections/surviving animals: 3/0
[8]; Dose 300 mg/kg
  Animals receiving injections/surviving animals: 3/0
[8]; at the higher D 609-doses
  number of surviving animals, effect of cyclodextrin: clearly increased
[8]; [13]
  LD50: 250 mg/kg
[8]; [14]
  LD50: 75 mg/kg
[1]
  % Decomposition − Cyclodextrin: 20%
  % Decomposition + Cyclodextrin: 1%
[9]
  effect in an animal model of stroke: protective effect
[2]
  concentration of complete hemolysis: 500 µg/mL
  hemolytic effect / dose-response curves in the presence versus absence of cyclodextrin: reduced strongly
  increase of the IC50 by a factor: 6.4
[2]; absence of cyclodextrin
  50% hemolysis (IC50): 125 µg/mL
[2]; presence of cyclodextrin
  50% hemolysis (IC50): 800 µg/mL

## CCCCCCCCCCOC(=S)S [Decyl, decylxanthate]
[1]
  % Decomposition − Cyclodextrin: 10%
  % Decomposition + Cyclodextrin: 1%

## CCOC(=S)S [Ethyl]
[1]
  % Decomposition − Cyclodextrin: 10%
  % Decomposition + Cyclodextrin: 1%
  Stabilization factor: 10

## CCCCCCOC(=S)S [Hexylxanthate, hexylxanthate]
[8]; Dose 50 mg/kg
  Animals receiving injections/surviving animals: 3/3
[8]; Dose 100 mg/kg
  Animals receiving injections/surviving animals: 3/2
[8]; Dose 200 mg/kg
  Animals receiving injections/surviving animals: 3/0
[8]; Dose 300 mg/kg
  Animals receiving injections/surviving animals: 3/0
[8]; [13]
  LD50: 130 mg/kg
[8]; [14]
  LD50: 130 mg/kg
[1]
  % Decomposition − Cyclodextrin: 20%
  % Decomposition + Cyclodextrin: 1%
[2]
  concentration of complete hemolysis: 500 µg/mL
  hemolytic effect / dose-response curves in the presence versus absence of cyclodextrin: reduced strongly
  increase of the IC50 by a factor: 2.5
[2]; absence of cyclodextrin
  50% hemolysis (IC50): 300 µg/mL
[2]; presence of cyclodextrin
  50% hemolysis (IC50): 750 µg/mL

## CC(C)OC(=S)S [Isopropyl, isopropylxanthate]
[1]
  % Decomposition − Cyclodextrin: 20%
  % Decomposition + Cyclodextrin: 1%
  Stabilization factor: 20

## COC(=S)S [Methyl, methylxanthate]
[1]
  % Decomposition − Cyclodextrin: 50%
  % Decomposition + Cyclodextrin: 1%
  Stabilization factor: 50
[2]; FIGS. 2 and 3
  hemolytic effect / dose-response curves in the presence versus absence of cyclodextrin: no significant differences
[2]; absence of cyclodextrin
  concentration of complete hemolysis: 1000 µg/mL
  50% hemolysis (IC50): 600 µg/mL
[2]; presence of cyclodextrin
  concentration of complete hemolysis: 1000 µg/mL
  50% hemolysis (IC50): 650 µg/mL

## CCCOC(=S)S [Propyl, propylxanthate]
[1]
  % Decomposition − Cyclodextrin: 20%
  % Decomposition + Cyclodextrin: 2%
  Stabilization factor: 10

## beta-hydroxypropyl-cyclodextrin
[10]
  influence on the antiviral activity of D609: no influence

## methyl-beta-cyclodextrin
[11]
  protective effect from decomposition of D 609: works the best by far
